Series [1] deals with Helicobacter pylori (ATCC43504). Description: MIC and MBC by microdilution method according to CLSI guideline. Particulars: ATCC43504, 72 h. It is filed as cell-based. As for the experimental part: Helicobacter pylori (ATCC43504): Type strain for antibiotic susceptibility testing according to the Clinical & Laboratory Standards Institute (CLSI) guidelines.
(§1) The medium was prepared using Müller-Hinton broth (MH, Difco Inc., Sparks, MD, USA) [w/7% […] (Sigma CO., LTD., St. Louis, USA), 0.4% isovitalex (BBL Inc., Sparks, MD, USA)].
(§2) An antibiotic susceptibility testing was performed using the microdilution method according to the CLSI guideline. Two-fold serial dilution was performed in 12 steps in a 48-well plate with the highest concentration of 128 µg/mL for amocixillin and clarithromycin and 256 µg/mL for omeprazole. The bacteria were inoculated into wells containing only medium without antibiotics to prepare the positive control group, and the wells containing only medium without antibiotics or inoculated bacteria were used as the negative control group. The concentration range of the test substances, zastaprazan (JP-1366) and fexuprazan, was determined through preliminary experiments. H. pylori stored in a deep freezer (-70 °C or lower) was thawed, inoculated onto BHI agar (w/7% laked horse blood and 0.4% isovitalex), cultured at 37 °C under microaerobic conditions of 5% O2, 10% CO2, and 85% N2 gas for three days, and then subcultured onto a fresh medium. The cultured bacteria were harvested, suspended in PBS, inoculated into each well at a concentration of 5 x 10^5 CFU/mL, and then cultured at 37 °C under microaerobic conditions of 5% O2, 10% CO2, and 85% N2 gas for three days. The lowest concentration at which no bacterial growth was observed was determined as the MIC. Thereafter, 10 µL of the culture solution from each well at different concentrations was spotted onto BHI agar (w/7% laked horse blood and 0.4% isovitalex) containing no antibiotics and cultured for three days at 37 °C under microaerobic conditions. The lowest concentration at which no bacteria growth occurred was determined as the MBC.
To determine the MBC, 10 µl of the culture solution from each well was spotted on a solid medium containing no antibiotics or test substances after the MIC determination, and bacterial growth was examined.
(§3) All tests were performed in duplicate, and the results were determined by conducting the experiments in triplicate.

For series [2], the system named is Helicobacter pylori 26695 (ATCC700329). The description is as above. The class given is cell-based. To be noted: ATCC700329, 72 h. How it is done: Helicobacter pylori 26695 (ATCC700329): A strain isolated from a patient known to be associated with the development of gastric cancer. The strain is cytotoxin associated gene (CagA)-positive and vacuolating cytotoxin (VacA)-positive and has a well-known genetic background, so it is mainly used for research purposes.
as §1
An antibiotic susceptibility testing was performed using the microdilution method according to the CLSI guideline. […] The concentration range of the test substances, zastaprazan (JP-1366) and fexuprazan, was determined through preliminary experiments. […] The lowest concentration at which no bacterial growth was observed was determined as the MIC. […] The lowest concentration at which no bacteria growth occurred was determined as the MBC.
To determine the MIC, visual inspection was performed and the absorbance was measured at 600 nm, and the growth was confirmed based on the absorbance of the negative control group containing only the medium. […]
as §3

The test system of series [3] is Helicobacter pylori SS1 (mouse colonizing strain). The description is as above. To be noted: 72 h, 3 days; for MBC: spotted on antibiotic-free BHI agar, unit from method b141/b236, table prints none. It is filed as cell-based. How it is done:
Helicobacter pylori SS1 (mouse colonizing strain): A strain known as Sydney strain. The strain is CagA-positive and VacA-positive and has been confirmed to infect and colonize in C57BL/6 mice. The strain is used in animal testing.
as §1
as §2, with “Thereafter, 10 µL of the culture solution from each well at different concentrations was spotted onto BHI agar (w/7% laked horse blood and 0.4% isovitalex) containing no antibiotics and cultured for three days at 37 °C under microaerobic conditions.” left out, “MBC. […]” for “MBC.”
as §3

Series [4] shares this test system. Description: Clarithromycin MIC and MBC by microdilution with or without JP-1366 in the medium. It is filed as cell-based. To be noted: medium containing zastaprazan (JP1366) at 1/2 MIC concentration vs MH medium. How it is done: Helicobacter pylori SS1 (mouse colonizing strain): Known as Sydney strain, the strain is CagA-positive and VacA-positive, and has been confirmed to colonize mice C57BL/6 and is used in animal experiments.
Zastaprazan (JP-1366) was supplied as a product prepared at a concentration of 10 mM in dimethyl sulfoxide (DMSO) solvent, and clarithromycin was prepared at a concentration of 5 mg/mL in DMSO solvent.
An antibiotic susceptibility test was performed by the microdilution method according to CLSI guideline.
The antibiotic susceptibility test was performed using MH broth (7% horse serum, 0.4% IsoVitalex), and the susceptibility test medium for zastaprazan (JP-1366) was prepared at this time. […] Using the medium prepared in this way, clarithromycin was serially diluted 2-fold and in 16 steps, with a maximum concentration of 16 µg/mL. Wells containing only the medium without antibiotics were used as a negative control group, and wells inoculated only with the bacteria in the medium without antibiotics were used as a positive control group. […] The lowest concentration of the sample at which no bacterial growth was observed was determined as the MIC. […] The lowest concentration at which no bacterial growth was observed was determined as the minimum bactericidal concentration(MBC). […]

Series [5] is described as follows: Solubility observed during MIC analysis. The class given is physicochemical. To be noted: in MIC medium; formation of suspension, interference in visual/absorbance analysis. An excerpt:
Referring to Table 4 below, since the solubility of zastaprazan (JP-1366) was low, the MIC analysis was difficult (poor solubility, formation of suspension, interference in visual/absorbance analysis), so the inhibitory effect on the H. pylori strains was confirmed through the MBC index.

The subject of series [6] is patients with erosive gastroesophageal reflux disease. Description: Phase 2 clinical trial, healing of mucosal breaks and symptom assessment. The class given is in vivo, human. To be noted: within 24 hours and for seven days after administration; subject diary. As for the experimental part: H. pylori testing was performed by 13C-urea breath test (13C-UBT), gastroscopy (Campylobacter-like organism test, CLO), or tissue biopsy to confirm H. pylori positivity/negativity. […] This clinical trial was a randomized, double-blind, active-controlled, multicenter, phase 2 clinical trial targeting patients with erosive gastroesophageal reflux disease. After the subjects gave written consent to participate in the clinical trial, a screening test was conducted. […] At this time, the subjects were stratified by grade (A, B, C, D) according to the LA classification system classified by upper gastrointestinal endoscopy. Randomly assigned subjects took the clinical trial drug once a day according to the assigned administration group for four weeks. After four weeks of administration of the clinical trial drug, the subjects visited the clinical trial institution to undergo an upper gastrointestinal endoscopy to assess whether they were healed. Healed subjects underwent a Safety Follow-Up (F/U) two weeks later, and unhealed subjects were administered the clinical trial drug for additional four weeks (a total of 8 weeks of administration) and visited the clinical trial institution to undergo an upper gastrointestinal endoscopy. […]

Four compounds from patent publication EP4628081A1, “COMPOSITION FOR REMOVING HELICOBACTER PYLORI COMPRISING ZASTAPRAZAN OR PHARMACEUTICALLY ACCEPTABLE SALT THEREOF” (priority 2022, dated 2024) can be followed below.

Converted amounts (≈) assume the structure as drawn. Where two headings read alike, the source gives them in different places.

For `CC1(C)S[C@@H]2[C@H](NC(=O)[C@H](N)c3ccc(O)cc3)C(=O)N2[C@H]1C(=O)O` [Amoxicillin, Amoxicillin Trihydrate], the MBC in series [1] (strain 43504, spotted on antibiotic-free BHI agar, 3 days, unit from method b141/b236, table prints none, read-out: MBC) was 0.032 µg/mL; in series [2] (strain 26695, spotted on antibiotic-free BHI agar, 3 days, unit from method b141/b236, table prints none, read-out: MBC) it was 0.032 µg/mL; in series [3], 0.25 µg/mL.

`CC[C@H]1OC(=O)[C@H](C)[C@@H](O[C@H]2C[C@@](C)(OC)[C@@H](O)[C@H](C)O2)[C@H](C)[C@@H](O[C@@H]2O[C@H](C)C[C@H](N(C)C)[C@H]2O)[C@](C)(OC)C[C@@H](C)C(=O)[C@H](C)[C@@H](O)[C@]1(C)O` [Clarithromycin]: the MBC in series [1] amounted to 0.063 µg/mL (≈ 0.0842 µM); in series [2] it was 0.125 µg/mL (≈ 0.167 µM); in series [3], 0.125 µg/mL (≈ 0.167 µM). Further, the MIC in series [1] was 0.032 µg/mL (≈ 0.0428 µM); in series [3] (37 °C, microaerobic, unit from method b141, table prints none), 0.032 µg/mL (≈ 0.0428 µM). Also, the “MBC lowered by” value in series [4] was “about 1/2”.

Consider `Cc1cccc(C)c1CNc1cc(C(=O)N2CCC2)cn2c(C)c(C)nc12.O=C(O)CC(O)(CC(=O)O)C(=O)O` [JP-1366, azetidin-1-yl{8-[(2,6-dimethylbenzyl)amino]-2,3-dimethylimidazo[1,2-a]pyridin-6-yl}methanone citrate salt], for which the solubility entry in series [5] was “low”. Further, in series [6], the “evaluation of all symptoms (heartburn, acid reflux, heartburn/acid reflux)” value is given as “all symptoms tended to be ameliorated”.

Take `COc1ccc2[nH]c([S+]([O-])Cc3ncc(C)c(OC)c3C)nc2c1` (stereo not shown) [Omeprazole]: in series [1], the MBC worked out at 64 µg/mL (≈ 185 µM) and the lowest concentration to inhibit growth (MIC) was 32 µg/mL (≈ 92.6 µM).
